From ChEMBL document CHEMBL3046001, “4-Thiazolidinone and 1-thia-3,4,9-triaza fluorene conjugates: synthesis, characterization and antimicrobial screening” (2013) come the findings set out here.

Values after ≈ are worked out from the molar mass of the structure shown.

Assay type in all cases: functional
In one experiment the test system is Escherichia coli. Description: Antibacterial activity against Escherichia coli MTCC 1573 assessed as growth inhibition at 10 ug/mL after 48 hr by agar diffusion method. To be noted: MTCC 1573, 48 h, read-out: DIZ. (In general: Agar diffusion results depend on both activity and mobility in agar.)
Experiment [1] concerns Pseudomonas aeruginosa. Nature of the experiment: Antibacterial activity against Pseudomonas aeruginosa MTCC 424 assessed as growth inhibition after 24 hr by tube dilution method. To be noted: MTCC 424, 24 h.
For experiment [2], the system named is Bacillus pumilus. Nature of the experiment: Antibacterial activity against Bacillus pumilus MTCC 1456 assessed as growth inhibition at 10 ug/mL after 48 hr by agar diffusion method. To be noted: MTCC 1456, 48 h, read-out: DIZ.
For experiment [3], the system named is Bacillus subtilis. Description: Antibacterial activity against Bacillus subtilis MTCC 441 assessed as growth inhibition at 10 ug/mL after 48 hr by agar diffusion method. The conditions noted are these: MTCC 441, 48 h, read-out: DIZ.
The test system of experiment [4] is Micrococcus luteus. Description: Antibacterial activity against Micrococcus luteus MTCC 1538 assessed as growth inhibition after 24 hr by tube dilution method. To be noted: MTCC 1538, 24 h.
The subject of experiment [5] is Pseudomonas fluorescens. Description: Antibacterial activity against Pseudomonas fluorescens MTCC 2421 assessed as growth inhibition at 10 ug/mL after 48 hr by agar diffusion method. To be noted: MTCC 2421, 48 h, read-out: DIZ.
For experiment [6], the system named is Staphylococcus aureus. Description: Antibacterial activity against Staphylococcus aureus MTCC 1430 assessed as growth inhibition after 24 hr by tube dilution method. The conditions noted are these: MTCC 1430, 24 h.
The test system of experiment [7] is Pseudomonas fluorescens. Description: Antibacterial activity against Pseudomonas fluorescens MTCC 2421 assessed as growth inhibition after 24 hr by tube dilution method. The conditions noted are these: MTCC 2421, 24 h.
Experiment [8] concerns Bacillus subtilis. Description: Antibacterial activity against Bacillus subtilis MTCC 441 assessed as growth inhibition after 24 hr by tube dilution method. The conditions noted are these: MTCC 441, 24 h.
In experiment [9] the test system is Bacillus pumilus. Nature of the experiment: Antibacterial activity against Bacillus pumilus MTCC 1456 assessed as growth inhibition after 24 hr by tube dilution method. The conditions noted are these: MTCC 1456, 24 h.
Experiment [10] deals with Staphylococcus aureus. Nature of the experiment: Antibacterial activity against Staphylococcus aureus MTCC 1430 assessed as growth inhibition at 10 ug/mL after 48 hr by agar diffusion method. To be noted: MTCC 1430, 48 h, read-out: DIZ.
Experiment [11] deals with Micrococcus luteus. Description: Antibacterial activity against Micrococcus luteus MTCC 1538 assessed as growth inhibition at 10 ug/mL after 48 hr by agar diffusion method. The conditions noted are these: MTCC 1538, 48 h, read-out: DIZ.
Experiment [12] deals with Pseudomonas aeruginosa. Nature of the experiment: Antibacterial activity against Pseudomonas aeruginosa MTCC 424 assessed as growth inhibition at 10 ug/mL after 48 hr by agar diffusion method. The conditions noted are these: MTCC 424, 48 h, read-out: DIZ.
Experiment [13] deals with Aspergillus niger. Description: Antifungal activity against Aspergillus niger MTCC 2546 assessed as growth inhibition after 24 hr by tube dilution method. The conditions noted are these: MTCC 2546, 24 h.
The subject of experiment [14] is Aspergillus niger. Nature of the experiment: Antifungal activity against Aspergillus niger MTCC 2546 assessed as growth inhibition at 10 ug/mL after 48 hr by agar diffusion method. To be noted: MTCC 2546, 48 h, read-out: DIZ.
The subject of experiment [15] is Penicillium chrysogenum. Nature of the experiment: Antifungal activity against Penicillium chrysogenum MTCC 161 assessed as growth inhibition after 24 hr by tube dilution method. To be noted: MTCC 161, 24 h.
For experiment [16], the system named is Penicillium chrysogenum. Nature of the experiment: Antifungal activity against Penicillium chrysogenum MTCC 161 assessed as growth inhibition at 10 ug/mL after 48 hr by agar diffusion method. To be noted: MTCC 161, 48 h, read-out: DIZ.

Turning to `CCn1cc(C(=O)O)c(=O)c2cc(F)c(N3CCNCC3)cc21` [NORFLOXACIN], the zone of inhibition at 10 µg/mL in the experiment on Escherichia coli is 25 mm; with Bacillus pumilus [2], 30 mm; in the experiment on Bacillus subtilis [3] it was 25 mm; in the experiment on Pseudomonas fluorescens [5], 27 mm; in the experiment with Staphylococcus aureus [10], 22 mm; with Micrococcus luteus [11], 24 mm. For the same compound, in the experiment with Pseudomonas aeruginosa [12], the zone of inhibition at 10 µg/mL is 26 mm. The MIC (commonly the smallest concentration in the dilution series that meets the test's criterion for growth inhibition) amounted to 2.5 µg/mL (≈ 7.83 µM) in the experiment on Pseudomonas aeruginosa [1]; 2.5 µg/mL (≈ 7.83 µM) in the experiment with Micrococcus luteus [4]; 5 µg/mL (≈ 15.7 µM) with Staphylococcus aureus [6]; 2.5 µg/mL (≈ 7.83 µM) in the experiment with Pseudomonas fluorescens [7]; 2.5 µg/mL (≈ 7.83 µM) with Bacillus subtilis [8]; 1.25 µg/mL (≈ 3.91 µM) with Bacillus pumilus [9].

As for `OC(Cn1cncn1)(Cn1cncn1)c1ccc(F)cc1F` [FLUCONAZOLE], the MIC in the experiment with Aspergillus niger [13] turned out to be 2.5 µg/mL (≈ 8.16 µM); in the experiment with Penicillium chrysogenum [15], 1.25 µg/mL (≈ 4.08 µM). Also, the zone of inhibition at 10 µg/mL in the experiment with Aspergillus niger [14] was 22 mm; in the experiment with Penicillium chrysogenum [16], 23 mm.
